Assay results published in DBAASP.
≈ marks a conversion by molar mass, not a printed value.

Assays:
Test in all cases: ≥ marks a high value that may be exact or a test limit, other limits are often not marked, values filed in µg/mL are converted to µM
Acinetobacter baumannii = system: Acinetobacter baumannii
[1] = system: Pseudomonas aeruginosa PAO1
[2] = system: Staphylococcus epidermidis ATCC 12228
Escherichia coli K99 = system: Escherichia coli K99
[3] = system: Staphylococcus aureus ATCC 25923
[4] = system: Salmonella enterica subsp. enterica serovar Typhimurium ATCC 14028
Escherichia coli K88 = system: Escherichia coli K88
[5] = system: Bacillus subtilis CMCC 63501
Escherichia coli UB1005 = system: Escherichia coli UB1005
[6] = system: Enterococcus faecalis ATCC 29212
[7] = system: Salmonella enterica subsp. enterica serovar Pullorum ATCC 7913
[8] = system: Pseudomonas aeruginosa ATCC 27853
Escherichia coli 078 = system: Escherichia coli 078
[9] = system: Listeria monocytogenes CGMCC 1.1075
[10] = system: Staphylococcus aureus ATCC 43300
[11] = system: Bacillus cereus CGMCC 1.932
[12] = system: Salmonella typhimurium ATCC 7731
[13] = system: Mannheimia haemolytica 82-25
[14] = system: Pseudomonas aeruginosa CUN 4158-02
[15] = system: Escherichia coli ATCC 25922
[16] = system: Bordetella bronchiseptica CUN 11844-99

Row | SMILES | MIC (Acinetobacter baumannii) [µM] | MIC [1] [µM] | MIC [2] [µM] | MIC (Escherichia coli K99) [µM] | MIC [3] [µM] | MIC [4] [µM] | MIC (Escherichia coli K88) [µM] | MIC [5] [µM] | MIC (Escherichia coli UB1005) [µM] | MIC [6] [µM] | MIC [7] [µM] | MIC [8] [µM] | MIC (Escherichia coli 078) [µM] | MIC [9] [µM] | MIC [10] [µM] | MIC [11] [µM] | MIC [12] [µM] | MIC [13] [µM] | other results
1 | NCC(=O)N[C@@H](CC(=O)O)C(=O)N[C@@H](CC(=O)O)C(=O)N[C@@H](CC(=O)O)C(=O)N[C@@H](CC(=O)O)C(=O)N[C@@H](CC(=O)O)C(=O)N[C@@H](CC(=O)O)C(=O)O [GDDDDDD] | – | – | – | – | – | – | – | – | – | – | – | – | – | – | – | – | – | ≥ 60 | –
2 | C[C@H](N)C(=O)N[C@@H](CC(=O)O)C(=O)N[C@@H](CC(=O)O)C(=O)N[C@@H](CC(=O)O)C(=O)N[C@@H](CC(=O)O)C(=O)N[C@@H](CC(=O)O)C(=O)N[C@@H](CC(=O)O)C(=O)O [ADDDDDD] | – | – | – | – | – | – | – | – | – | – | – | – | – | – | – | – | – | ≥ 50 | –
3 | CC(C)C[C@H](NC(=O)CNC(=O)[C@H](CCCCN)NC(=O)[C@H](Cc1ccccc1)NC(=O)[C@H](CCCCN)NC(=O)[C@H](Cc1c[nH]c2ccccc12)NC(=O)[C@H](CCCN=C(N)N)NC(=O)[C@H](Cc1ccccc1)NC(=O)[C@H](CCCN=C(N)N)NC(=O)[C@H](CCCN=C(N)N)NC(=O)[C@H](Cc1ccc(O)cc1)NC(=O)[C@H](CCCCN)NC(=O)[C@H](CCCCN)NC(=O)CN)C(=O)N[C@@H](Cc1ccccc1)C(=O)N[C@@H](CC(C)C)C(=O)N[C@@H](Cc1ccccc1)C(=O)N[C@@H](CC(C)C)C(=O)NCC(N)=O [GKKYRRFRWKFKGLFLFLG] | – | – | – | – | 26.1 (≈ 64 µg/mL) | – | – | – | – | – | – | – | – | – | – | – | – | – | MIC [14]: 26.1 µM (≈ 64 µg/mL); MIC [15]: 26.1 µM (≈ 64 µg/mL); MIC [16]: 6.54 µM (≈ 16 µg/mL)

Now from value to compound, other results behind:

Row | MIC (Acinetobacter baumannii) [µM] | MIC [1] [µM] | MIC [2] [µM] | MIC (Escherichia coli K99) [µM] | MIC [3] [µM] | MIC [4] [µM] | MIC (Escherichia coli K88) [µM] | MIC [5] [µM] | MIC (Escherichia coli UB1005) [µM] | MIC [6] [µM] | MIC [7] [µM] | MIC [8] [µM] | MIC (Escherichia coli 078) [µM] | MIC [9] [µM] | MIC [10] [µM] | MIC [11] [µM] | MIC [12] [µM] | SMILES | MIC [13] [µM] | other results
4 | 2 (≈ 3.34 µg/mL) | 16 (≈ 26.8 µg/mL) | 4 (≈ 6.69 µg/mL) | 8 (≈ 13.4 µg/mL) | 4 (≈ 6.69 µg/mL) | 8 (≈ 13.4 µg/mL) | 4 (≈ 6.69 µg/mL) | 4 (≈ 6.69 µg/mL) | 8 (≈ 13.4 µg/mL) | 4 (≈ 6.69 µg/mL) | 4 (≈ 6.69 µg/mL) | 16 (≈ 26.8 µg/mL) | 4 (≈ 6.69 µg/mL) | 1 (≈ 1.67 µg/mL) | 4 (≈ 6.69 µg/mL) | 16 (≈ 26.8 µg/mL) | 8 (≈ 13.4 µg/mL) | CC(C)[C@H](NC(=O)[C@H](CCCN=C(N)N)NC(=O)[C@H](Cc1c[nH]c2ccccc12)NC(=O)[C@H](CCCN=C(N)N)NC(=O)[C@H](Cc1c[nH]c2ccccc12)NC(=O)[C@H](Cc1c[nH]c2ccccc12)NC(=O)[C@H](Cc1c[nH]c2ccccc12)NC(=O)[C@H](CCCN=C(N)N)NC(=O)[C@H](Cc1c[nH]c2ccccc12)NC(=O)[C@@H](N)CCCN=C(N)N)C(N)=O [RWRWWWRWRV] | – | –
5 | 2 (≈ 3.52 µg/mL) | 4 (≈ 7.04 µg/mL) | 2 (≈ 3.52 µg/mL) | 8 (≈ 14.1 µg/mL) | 2 (≈ 3.52 µg/mL) | 8 (≈ 14.1 µg/mL) | 2 (≈ 3.52 µg/mL) | 8 (≈ 14.1 µg/mL) | 4 (≈ 7.04 µg/mL) | 4 (≈ 7.04 µg/mL) | 4 (≈ 7.04 µg/mL) | 32 (≈ 56.3 µg/mL) | 2 (≈ 3.52 µg/mL) | 1 (≈ 1.76 µg/mL) | 2 (≈ 3.52 µg/mL) | 4 (≈ 7.04 µg/mL) | 8 (≈ 14.1 µg/mL) | NC(=O)[C@H](Cc1c[nH]c2ccccc12)NC(=O)[C@H](CCCN=C(N)N)NC(=O)[C@H](Cc1c[nH]c2ccccc12)NC(=O)[C@H](CCCN=C(N)N)NC(=O)[C@H](Cc1c[nH]c2ccccc12)NC(=O)[C@H](Cc1c[nH]c2ccccc12)NC(=O)[C@H](Cc1c[nH]c2ccccc12)NC(=O)[C@H](CCCN=C(N)N)NC(=O)[C@H](Cc1c[nH]c2ccccc12)NC(=O)[C@@H](N)CCCN=C(N)N [RWRWWWRWRW] | – | –
6 | 2 (≈ 3.49 µg/mL) | 8 (≈ 13.9 µg/mL) | 4 (≈ 6.97 µg/mL) | 8 (≈ 13.9 µg/mL) | 2 (≈ 3.49 µg/mL) | 4 (≈ 6.97 µg/mL) | 4 (≈ 6.97 µg/mL) | 4 (≈ 6.97 µg/mL) | 8 (≈ 13.9 µg/mL) | 2 (≈ 3.49 µg/mL) | 2 (≈ 3.49 µg/mL) | 8 (≈ 13.9 µg/mL) | 4 (≈ 6.97 µg/mL) | 1 (≈ 1.74 µg/mL) | 4 (≈ 6.97 µg/mL) | 8 (≈ 13.9 µg/mL) | 16 (≈ 27.9 µg/mL) | CC[C@H](C)[C@H](NC(=O)[C@H](CCCN=C(N)N)NC(=O)[C@H](Cc1c[nH]c2ccccc12)NC(=O)[C@H](CCCN=C(N)N)NC(=O)[C@H](Cc1c[nH]c2ccccc12)NC(=O)[C@H](Cc1c[nH]c2ccccc12)NC(=O)[C@H](Cc1c[nH]c2ccccc12)NC(=O)[C@H](CCCN=C(N)N)NC(=O)[C@H](Cc1c[nH]c2ccccc12)NC(=O)[C@H](CCCN=C(N)N)NC(=O)CN)C(N)=O [GRWRWWWRWRI] | – | –
